In data set [1] the test system is Staphylococcus aureus Smith SA 819. The data set can be described thus: Murine septicaemia, Staphylococcus aureus Smith SA 819 systemic infection. Conditions: mice, i.p. infection, s.c. treatment, survival to day 7. It is filed as in vivo. The procedure: As an example, therapeutical effectiveness of some representative compounds of formula (Ia) in murine septicaemia caused by intraperitoneally administered Staphylococcus aureus Smith SA 819 was evaluated in comparison with ramoplanin. Vancomycin was chosen as reference drug for the evaluation of in vivo antiinfective activity.
Mice were infected intraperitoneally with Staphylococcus aureus Smith SA 819. Untreated animals died within 24 hours after infection. Groups of eight mice each were treated s.c. with different dose levels of ramoplanin or of each test compound, starting 10–20 min after challenge. Reference drugs was s.c. injected vancomycin.

Data set [2] deals with methicillin-resistant Staphylococcus aureus SA 613. Nature of the data set: Murine infection, methicillin-resistant Staphylococcus aureus SA 613. It is filed as in vivo. The note with it: mice, i.p. infection, s.c. treatment, survival to day 7. As to the method: Mice were infected intraperitoneally with ca 10^7 CFU/mouse of Staphylococcus aureus SA 613. Untreated animals died within 24 hours after infection. Groups of eight mice each were treated iv or s.c. with different dose levels of ramoplanin or each test compound, starting 10–20 minutes after challenge. Ramoplanin and vancomycin were used as reference drugs.

The test system of data set [3] is 560 Entero. faecalis VanA. Nature of the data set: MIC, broth microdilution NCCLS (isolated compounds or reaction solutions). Conditions: for MIC: 560 Entero. faecalis VanA, isolated compounds. It is filed as cell-based, Enterococcus faecalis. The procedure:
(§1) The antimicrobial activity in vitro of the compounds obtained according to the process of this invention was evaluated against a panel of clinical isolates of methicillin-sensitive, methicillin-resistant and vancomycin-intermedie Staphylococcus aureus, Van-S and Van-A Enterococcus faecium and faecalis, Streptococcus pyogenes, Escherichiae coli and Candida albicans.
(§2) MICs were performed using the broth microdilution methodology following the NCCLS procedure (NCCLS Document M7-A4 Vol.17 No.2 January 1997) in presence of 0.02% albumine bovine serum with inocula of approximately 5×10^5 cfu/mL. The media employed included cation-adjusted Mueller-Hinton (MH) broth (Difco Laboratories, Detroit, Mich., USA) supplemented or not with 30% (v/v) bovine serum. Tests were read after 24 h incubation at 37° C.
(§3) A further set of experiments for measuring the antimicrobial activity in vitro of a series of compounds of formula (Ia) in comparison with the known compound 1 was carried out directly on the solutions deriving from the reaction of the starting acid of formula (IV) with the deacyl ramoplanin of formula (III) according to the method A described in the Examples.
(§4) The reaction solutions (resulting from the addition of 1M hydrochloric acid as described in Method A) were diluted at 6000 mcg/ml by adding 0.1% peptone Difco Laboratories, (Detroit, Mich., USA) plus 0.9% NaCl (PBS). The resulting solutions were diluted with water at the desired concentration to perform the test that was then carried out in the same way described for the isolated compounds reported in Table 2.
Background: Broth dilution looks for growth in wells or tubes with falling amounts of substance.

Data set [4] deals with 47 E coli SKF12140. Described as above. Format: cell-based, Escherichiae coli. Conditions: for MIC: 47 E coli SKF12140, isolated compounds. As to the method: as §1, §2, §3, §4
Data set [5] concerns 569 Entero. faecium clin. isolate Van-A. The description is as above. It is filed as cell-based, Enterococcus faecium. The note with it: for MIC: 569 Entero. faecium clin. isolate Van-A, isolated compounds. As to the method: as §1, §2, §3, §4
The test system of data set [6] is 3797 Staph. aureus clin. isolate VISA Met-R. The description is as above. Format: cell-based, Staphylococcus aureus. The note with it: for MIC: 3797 Staph. aureus clin. isolate VISA Met-R, isolated compounds. As to the method: as §1, §2, §3, §4
Data set [7] deals with 3798 Staph. aureus clin. isolate VISA. The description is as above. The note with it: for MIC: 3798 Staph. aureus clin. isolate VISA, isolated compounds. It is filed as cell-based, Staphylococcus aureus. As to the method: as §1, §2, §3, §4
Data set [8] has as its system 613 Staph. aureus clin. isolate Met-R. Described as above. Format: cell-based, Staphylococcus aureus. Conditions: for MIC: 613 Staph. aureus clin. isolate Met-R, isolated compounds. The procedure: as §1, §2, §3, §4
Data set [9] deals with 819 Staph. aureus Smith. The description is as above. The note with it: for MIC: 819 Staph. aureus Smith, isolated compounds. Format: cell-based, Staphylococcus aureus. As to the method: as §1, §2, §3, §4
The test system of data set [10] is blood cells. The data set can be described thus: Haemolytic potential on blood cells (isolated compounds). It is filed as cell-based, rats. As to the method: The ramoplanin-like amide derivatives were dissolved at 40.000 mcg/ml in dimethyl sulfoxide (DMSO) and then diluted 1:5 in 0.1% peptone Difco Laboratories, (Detroit, Mich., USA) plus 0.9% NaCl (PBS).
(§5) Whole blood sample was obtained from the dorsal aorta of rats and diluted 1:100 in PBS before the test.
Group 2—PBS as physiologic haemolysis control
Group 3—saponin (Sigma), solution at 3% in distilled water, as 100% haemolysis control.
(§6) The test groups were diluted 1:5 in blood cells and incubated in water bath at 37° C. for 45 minutes.
(§7) After the incubation time the samples were centrifuged at 2500–3000 g for 10 minutes, and 0.1 ml of each supernatant was diluted in 900 mcl of Drabkin's reagent (Sigma).
(§8) The optical density (OD) of the samples was measured at 540 nm versus a blank preparation of Drabkin's reagent plus 0.1 ml of PBS.
The test was performed in triplicate.
(§9) The percentage of haemolysis was calculate using the formula Δx/Δt×100=% of haemolysis
Δx=mean value of OD540 for each concentration tested (GROUP 1–2)
Δt=mean value of OD540 for 100% haemolysis control (GROUP 3).
(§10) The haemolysis was considered significant when exceeding at least 3 times the haemolytic value of blank control (GROUP 2).

Data set [11] has as its system 49 Strep. pyogenes C203. Nature of the data set: MIC, broth microdilution NCCLS (isolated compounds or reaction solutions). It is filed as cell-based, Streptococcus pyogenes. The note with it: for MIC: 49 Strep. pyogenes C203, isolated compounds. As to the method: as §1, §2, §3, §4
Data set [12] deals with 145 Candida albicans SKF2270. The description is as above. Format: cell-based. Conditions: for MIC: 145 Candida albicans SKF2270, isolated compounds. The procedure: as §1, §2, §3, §4
For data set [13], the system named is 559 Entero. faecalis (isogenic of L 560). The description is as above. It is filed as cell-based, Enterococcus faecalis. The procedure:
as §1, §2, §3, §4

Data set [14] concerns 568 Entero. faecium (isogenic of L569). The data set is described as above. Format: cell-based, Enterococcus faecium. As to the method: as §1, §2, §3, §4
For data set [15], the system named is blood cells. Nature of the data set: Haemolytic effect (reaction solutions). It is filed as cell-based, rats. The procedure:
as §5, §6, §7, §8, §9, §10
A further set of experiments for measuring the haemolytic effect of a series of compounds of formula (Ia) in comparison with the known compound 1 was carried out directly on the solutions deriving from the reaction of the starting acid of formula (IV) with the deacyl ramoplanin of formula (III) according to the method A described in the Examples.
The reaction solutions (resulting from the addition of 1M hydrochloric acid as described in Method A) were diluted at 1200 mcg/ml by adding 0.1% peptone Difco Laboratories, (Detroit, Mich., USA) plus 0.9% NaCl (PBS).

The mark [16] stands for this setting: reaction solutions, +30% bovine serum.

In general, MIC refers to the smallest concentration in the dilution series that meets the test's criterion for growth inhibition. A lower MIC goes with inhibition by little substance.

With `CN[C@H](CC(C)C)C(=O)N[C@H]1C(=O)N[C@@H](CC(N)=O)C(=O)N[C@H]2C(=O)N[C@H]3C(=O)N[C@H](C(=O)N[C@H](C(=O)O)c4cc(O)cc(O)c4-c4cc3ccc4O)[C@H](O)c3ccc(c(Cl)c3)Oc3cc2cc(c3O[C@@H]2O[C@H](CO)[C@@H](O)[C@H](O)[C@H]2O[C@H]2C[C@](C)(N)[C@H](O)[C@H](C)O2)Oc2ccc(cc2Cl)[C@H]1O` [Vancomycin], the ED50 worked out at 0.64 mg/kg/dose in data set [1] and 8 mg/kg/dose in data set [2].
As to ramoplanin factor A1 [Compound 35], the MIC in data set [3] (+30% bovine serum) was 0.5 µg/mL; in data set [3], <0.125 µg/mL; in [4], >128 µg/mL; in [5] (+30% bovine serum), 1 µg/mL; in [5] it was <0.125 µg/mL; in data set [6] it was 1 µg/mL. Also, the minimum inhibitory concentration (MIC) in [7] (+30% bovine serum) is 2 µg/mL; in data set [7] it was 0.5 µg/mL; in data set [8] it was <0.125 µg/mL; in data set [9] (+30% bovine serum) it was 0.5 µg/mL; in data set [9] (MH broth) it was <0.125 µg/mL; in data set [11], <0.125 µg/mL. Also, the MIC in data set [12] is >128 µg/mL. In addition, the “% lyis at 100 mcg/ml” value in [10] was 58.99%. Moreover, the “% lysis at 200 mcg/ml” value in data set [10] came to 80.44%. In addition, the “% lysis at 400 mcg/ml” value in data set [10] was determined as 92.82%.
As to ramoplanin factor A2 [Compound 1], the MIC is 0.06 µg/mL in data set [13] (559 Entero. faecalis (isogenic of L 560), isolated compounds); 2 µg/mL in [3] (+30% bovine serum); 0.06 µg/mL in data set [3]; >32 µg/mL in data set [4]; 2 µg/mL in [5] (+30% bovine serum); 0.125 µg/mL in [5]. The MIC turned out to be 2 µg/mL in [6]; 16 µg/mL in data set [7] (+30% bovine serum); 1 µg/mL in data set [7]; 0.25 µg/mL in data set [8]; 4 µg/mL in data set [9] (+30% bovine serum); 0.125 µg/mL in data set [9] (MH broth). The MIC in data set [11] is <0.03 µg/mL; in data set [12], >32 µg/mL. The “MIC 559 Entero. faecalis (isogenic of L 560)” value in data set [13] (reaction solutions, no serum) was “≦0.125 mcg/ml”. Also, in [3] (setting [16]), the “MIC 560 Entero. faecalis VanA +30% bovine serum” value turned out to be 2 µg/mL. The “MIC 560 Entero. faecalis VanA” value in [3] (reaction solutions, no serum) is reported as “≦0.125 mcg/ml”. Further, in data set [4] (reaction solutions), the “MIC 47 E coli SKF12140” value was >128 µg/mL. In data set [14] (reaction solutions, no serum), the “MIC 568 Entero. faecium (isogenic of L569)” value is reported as “≦0.125 mcg/ml”. In data set [5] (setting [16]), the “MIC 569 Entero. faecium clin. isolate Van-A +30% bovine serum” value amounted to 2 µg/mL. In addition, the “MIC 569 Entero. faecium clin. isolate Van-A” value in data set [5] (reaction solutions, no serum) is given as “≦0.125 mcg/ml”. For the same compound, the “MIC 3797 Staph. aureus clin. isolate VISA Met-R” value in data set [6] (reaction solutions, no serum) came to 2 µg/mL. In addition, in data set [7] (setting [16]), the “MIC 3798 Staph. aureus clin. isolate VISA +30% bovine serum” value was 8 µg/mL. Moreover, the “MIC 3798 Staph. aureus clin. isolate VISA” value in data set [7] (reaction solutions, no serum) is 1 µg/mL. Moreover, in data set [8] (reaction solutions, no serum), the “MIC 613 Staph. aureus clin. isolate Met-R” value is 0.25 µg/mL. In data set [9] (setting [16]), the “MIC 819 Staph. aureus Smith +30% bovine serum” value was determined as 2 µg/mL. Also, in data set [9] (reaction solutions, no serum), the “MIC 819 Staph. aureus Smith” value is given as “≦0.125 mcg/ml”. The “% lysis at 300 mcg/ml” value in data set [15] (300 mcg/ml) came out at 74.39%. In [15] (600 mcg/m), the “% lysis at 600 mcg/m” value came out at 88.87%. Moreover, the “% lyis at 100 mcg/ml” value in data set [10] was found to be 86.04%. In addition, the “% lysis at 200 mcg/ml” value in data set [10] came out at 100%. In [10], the “% lysis at 400 mcg/ml” value worked out at 100%. Besides, in [11] (reaction solutions, no serum), the “MIC 49 Strep. pyogenes C203” value was “≦0.125 mcg/ml”. In addition, the “MIC 145 Candida albicans SKF2270” value in data set [12] (reaction solutions) was >128 µg/mL.
On to “tetrahydroderivative of ramoplanin factor A1 [Compound 5]”, for which the minimum inhibitory concentration (MIC) in data set [3] (+30% bovine serum) was 2 µg/mL; in [3] it was 0.06 µg/mL; in data set [4], >32 µg/mL; in [14] (568 Entero. faecium (isogenic of L569), isolated compounds), 0.25 µg/mL; in [5] (+30% bovine serum) it was 4 µg/mL; in data set [5], 0.125 µg/mL. Besides, the MIC in data set [6] is 4 µg/mL; in data set [7], 2 µg/mL; in data set [8], 0.5 µg/mL; in data set [9] (+30% bovine serum), 4 µg/mL; in data set [9] (MH broth), 0.25 µg/mL; in data set [11] it was <0.03 µg/mL. Besides, in data set [12], the MIC is >32 µg/mL.
